Patent publication US7695725B2, “Modified free-living microbes, vaccine compositions and methods of use thereof” (Aduro Biotech, priority 2003, dated 2010)

System: Listeria monocytogenes
Experiment: Bacterial titer / log attenuation of Listeria after compound 1 treatment
Assay type: cell-based
Settings: e.g. at 1 μM
Procedure: A procedure was done similarly to Example 1 only using the compound β-alanine, N-(acridin-9-yl), 2-[bis(2-chloroethyl)amino]ethyl ester (Compound 1, ChemSyn, Harrisonville, Mo., see U.S. Pat. No. 6,093,725). The Listeria strains used were DP-L4056 and DP-L4017. Compound 1 (1 mM in acidic BBS (blood bank saline), 135 μl of 1.48 M H3PO4 per 100 mL BBS) was added to 5 mL of bacteria at 1×10^8 CFU/mL to concentrations of 0, 0.5, 1, 2, 5, and 10 μM and the samples incubated for 2 hours at room temperature. After the incubation, the bacterial titer and antigen presentation was assessed as per Example 1.

O=C(CCNc1c2ccccc2nc2ccccc12)OCCN(CCCl)CCCl [compound 1, β-alanine, N-(acridin-9-yl), 2-[bis(2-chloroethyl)amino]ethyl ester]
attenuation of proliferation with sufficient antigen presentation: effective
